Tests used:
[1] = Efficiency of entrapment of drugs/bioactive agents in collagen disks or particles; format: physicochemical
Experimental: Efficiency of entrapment of drugs/bioactive agents in the collagen disks or particles, and kinetics of drug efflux for small molecular weight drugs was determined utilizing absorption spectra (mostly in an ELISA plate reader), fluorescence emission spectra (mostly in a fluorescence plate reader), and HPLC. Half-life data was processed according to a theoretical framework previously developed for liposomes (Margalit et al., 1991), incorporated herein in its entirety) which yields the rate constant for drug efflux.

[2] = system: HT29 colon adenocarcimona cell line; test: Treatment of multi-drug resistant cell lines, cell survival by MTT assay; format: cell-based, human; settings: 24-28 hours post-treatment
Experimental: (§1) FIGS. 6A-6C show results for three cell lines, C26 (FIG. 6A), HT29 (FIG. 6B) and […], in terms of response to chemotherapeutic drugs encapsulated in collagen particles. The bars represent 60-64 repeats and the error bars represent the standard deviation. Three asterisks (***) indicate p<0.001.
(§2) Cells were seeded onto 96 well plates, and the experiment was initiated at semi-confluency, usually 24 hours post seeding. For the test system, cells were given a selected dose of the drug of choice, which was entrapped in a collagen particle formulation (washed of excess free drug prior to use). The controls were given the same dose of free drug, and a dose of drug-free collagen particles at a dose similar to that of the test system. Cell survival was determined 24-28 hours post-treatment, using the MTT assay (Nutt, et al. 2000; and Larsen et al., 2000).

[3] = system: C26 colon adenocarcimona cell line; test: as above; format: cell-based, mouse; settings: 24-28 hours post-treatment
Experimental: as §1, §2

[4] = system: glioma C6 line; test: as above; format: cell-based, rat; settings: 24-28 hours post-treatment
Experimental: as §1, §2

[5] = Collagen Disks (1-20 mm in a diameter)
[6] = Collagen particles (0.5-10 μm in diameter)

Row | Compound | % Entrapment [1, 5] | % Entrapment [1, 6] | cell survival / response (MTT), FIGS. 6A-6C [2] | cell survival / response (MTT), FIGS. 6A-6C [3] | cell survival / response (MTT), FIGS. 6A-6C [4]
1 | O=C(N[C@H](CO)[C@H](O)c1ccc([N+](=O)[O-])cc1)C(Cl)Cl [CAM, chloramphenicol] | 89.5 ± 1.4% | 94.1 ± 0.8% | – | – | –
2 | COc1cccc2c1C(=O)c1c(O)c3c(c(O)c1C2=O)C[C@@](O)(C(=O)CO)C[C@@H]3O[C@H]1C[C@H](N)[C@H](O)[C@H](C)O1 [DOX, doxorubicin] | 78.4 ± 2.4% | 71.9 ± 0.4% | typical for the inherent form of MDR | typical for the inherent form of MDR | typical for the inherent form of MDR
3 | CO[C@@]12[C@H](COC(N)=O)C3=C(C(=O)C(C)=C(N)C3=O)N1C[C@@H]1N[C@@H]12 [MMC, Mitomycin C] | 80.2 ± 1.0% | 67.3 ± 2.1% | – | – | –
4 | Insulin: high molecular weight drug entrapped in collagen particles and disks | 89.4 ± 2.3% | 91.2 ± 0.7% | – | – | –

Source: patent US8808664B2, “Lipidated glycoprotein particles and methods of use” (Ramot at Tel-Aviv University Ltd., priority 2004, dated 2014)
